Results: patent US8952003B2, “Sterol derivative” (Kyowa Hakko Kirin Co., Ltd, priority 2009, dated 2015)

System: Rat adult neural stem cell line ANSC-7 cells
Assay: Proliferation promoting activity on neural stem cells (Test Example 1)
Assay type: cell-based
Settings: relative value, negative control (DMSO) = 100%, wells without cells = 0%, absorbance at 490 nm; for activity at 0.01 µM: at 10 nmol/L; for activity at 0.1 µM: at 100 nmol/L; for activity at 0.001 µM: at 1.0 nmol/L
Experimental: Rat adult neural stem cell line ANSC-7 cells prepared by the method described in the following Reference Test Example 1 were suspended in assay medium at a density of 1.6×10^5 cells/mL; inoculated at 0.1 mL in a 96 well plate (manufactured by Costar) of which surface was coated with polyornithine and laminin; and cultured overnight at 37° C. under an atmosphere of 5% CO2. Thereafter, 50 μL of the culture supernatant was removed, and 50 μL of a test compound which was serially diluted with the assay medium to 2 times of the final concentration or DMSO (negative control) was added to each well. For the serial dilution of a test compound, non-specific adsorption was minimized by using ProteoSave 96 U plates (manufactured by SUMILON), siliconized 1.5 mL tubes (manufactured by Assist) and Pitarack siliconized tips (manufactured by Nacalai). After the culturing for 48 hours, 50 μL of the culture supernatant was replaced by 50 μL of the assay medium containing 0.1% bovine fetal serum. Furthermore, after the culturing for 48 hours, Living Cell Count Reagent SF (manufactured by Nacalai Tesque) was added at the volume of 10 μL per well to the medium. After the culturing for 3 hours at 37° C. in the incubator which was set at 5% CO2, the resulting solution was stirred for one minute and then the absorbance at 490 nm (control wavelength 655 nm) was measured by using Microplate Spectrophotometer Emax (manufactured by Molecular Devices). By regarding the measured value of well to which the cells were not inoculated as 0%, and the measured value of negative control as 100%, relative values in the test compound addition group were calculated.
After putting a 7-week-old Sprague Dawley Rat to sleep by ether anesthesia and subsequent decapitation, the skull was cut open from the parietal region to extract the brain. Under a microscope, tissues including circumventricular region were isolated from the extracted brain by using ophthalmic scissors and tweezers. The tissues including circumventricular region were cut into fragments of about 1 mm^3 using ophthalmic scissors and scalpels and then subjected to 30 minutes of digestion reaction at 37° C. in 5 mL of Hanks' buffer (HBSS buffer, manufactured by Invitrogen) containing 2.5 U/mL of papain, 250 U/mL of DNase (all manufactured by Worthington, Freehold, N.J.) and 1 U/mL of a neutral protease (Dispase, manufactured by Boehringer-Mannheim Corp.). The mixture of cells and tissues obtained by the reaction was washed three times with DMEM (manufactured by Invitrogen) containing 10% fetal bovine serum (manufactured by Hyclone) and then dissolved in the DMEM containing 10% fetal bovine serum, followed by removing the undigested materials using a nylon mesh of […].
The resulting crude cells extract was cultured overnight on a culture dish of 10 cm, in an incubator of 37° C. using DMEM/F12 medium (manufactured by Invitrogen) containing 10% fetal bovine serum. On the next day, the medium was replaced with DMEM/F12 containing 1% of N-2 additives (manufactured by Invitrogen) and 20 ng/mL of FGF 2 (manufactured by Pepro Tech) and the culturing was started. Once in 3 days, half of the medium was replaced with new DMEM/F12 containing 1% of N-2 additives and 20 ng/mL of FGF 2 and the culturing was continued.
When a small colony consisting of small cells was formed, it was treated with 1% trypsin for 30 seconds to 1 minute, and the cells detached were harvested. The harvested cells were inoculated on a multiple well culture dish (manufactured by Fisher Scientific) which had been coated at room temperature overnight using 10 μg/mL of polyornithine (manufactured by Sigma) and at 37° C. overnight using 5 μg/mL of mouse EHS tumor-derived laminin (Becton Dickinson), and the culturing was continued.
By continuing the above-mentioned culturing, small cells having small protrusion and thickness were concentrated. The cells were used as adult neural stem cells in the above-mentioned test (Test Example 1).

Molecule `CC(C)C(C)CC[C@H](C)[C@H]1CC[C@H]2C3=C(CC[C@]12C)[C@@]1(C)CC[C@H](O)C[C@@H]1C(=O)O3` (stereo in doubt) [Compound 76, 7-Oxa-ergosta-8(9)-en-6-on-3-ol] has an activity at 0.01 µM of no less than 125%.
`CC(C)C(=O)CC[C@H](C)[C@H]1CC[C@H]2C3=C(CC[C@]12C)[C@@]1(C)CC[C@H](O)C[C@@H]1C(=O)O3` (stereo in doubt) [Compound 78, 7-Oxa-cholest-8(9)-en-6,24-dion-3-ol] gave an activity at 0.1 µM of no less than 125%.
Work on `CC(CO)CCC[C@H](C)[C@H]1CCC2=C3OC(=O)[C@H]4C[C@@H](O)CC[C@]4(C)[C@H]3CC[C@@]21C` (stereo in doubt) [Compound 90, 7-oxa-cholest-8(14)-en-6-on-3,26-diol] yielded an activity at 0.01 µM of no less than 125%.
Molecule `CC(C)CCC[C@H](C)[C@H]1CC[C@H]2C3=C(CC[C@]12C)[C@@]1(C)CCC(=NO)CC1C(=O)O3` (stereo partly drawn) [Compound 3, (S)-3-Hydroxyimino-7-oxa-8-cholesten-6-one] has an activity at 0.001 µM of no less than 125%.
`CC(C)CCC[C@@H](C)[C@H]1CC[C@H]2C3=C(CC[C@]12C)[C@]1(C)[C@H](CC=C[C@@H]1O)C(=O)O3` [Compound 21, (1S,5S)-1-Hydroxy-7-oxa-2,8-cholestadien-6-one] showed an activity at 0.1 µM of no less than 125%.
With `C=CC[C@]12C[C@@H](O)CC[C@]1(C)C1=C(OC2=O)[C@@H]2CC[C@H]([C@H](C)CCCC(C)C)[C@@]2(C)CC1` [Compound 30, (3S,5S)-3-hydroxy-5-allyl-7-oxa-8-cholesten-6-one] the activity at 0.1 µM was no less than 125%.
Molecule `CC(C)CCC[C@@H](C)[C@H]1CC[C@H]2C3=C(CC[C@]12C)[C@@]1(C)CC[C@H](OCCO)C[C@@H]1C(=O)O3` [Compound 31, (3S,5S)-3-(2-Hydroxy)ethoxy-7-oxa-8-cholesten-6-one] has an activity at 0.001 µM of no less than 125%.
Molecule `CC(C)CCC[C@@H](C)[C@H]1CC[C@H]2C3=C(CC[C@]12C)[C@]1(C)[C@H](C[C@@H](O)[C@H](O)[C@@H]1O)C(=O)O3` [Compound 32, (1R,2S,3R,5S)-1,2,3-trihydroxy-7-oxa-8-cholesten-6-one] has an activity at 0.001 µM of no less than 125%.
In the case of `CC(C)CCC[C@@H](C)[C@H]1CC[C@H]2C3=C(CC[C@]12C)[C@@]1(C)CCNC(=O)C[C@@H]1C(=O)O3` [Compound 34, (1R,3aR,5aS,10aS,12aR)-10a,12a-Dimethyl-1-[(R)-6-methylheptan-2-yl]-1,2,3,3a,5a,6,9,10,10a,11,12,12a-dodecahydro-8-azacyclohepta[c]cyclopenta[h]chromen-5,7-dione], the activity at 0.01 µM was no less than 125%.
`CC(C)CCC[C@@H](C)[C@H]1CC[C@H]2C3=C(CC[C@]12C)[C@@]1(C)CC[C@H](OCc2ccccc2)C[C@@H]1C(=O)O3` [Compound 47, (3S,5S)-3-Benzyloxy-7-oxa-8-cholesten-6-one] showed an activity at 0.1 µM of no less than 125%.
With `CC(C)CCC[C@@H](C)[C@H]1CC[C@H]2C3=C(CC[C@]12C)[C@@]1(C)C[C@@H](O)C(=O)C[C@@H]1C(=O)O3` [Compound 48, (2R,5S)-2-Hydroxy-7-oxa-8-cholesten-3,6-dione] the activity at 0.001 µM was no less than 125%.
`CC(C)CCC[C@@H](C)[C@H]1CC[C@H]2C3=C(CC[C@]12C)[C@@]1(C)C[C@@H](O)[C@H](O)C[C@@H]1C(=O)O3` [Compound 53, (2R,3R,5S)-2,3-Dihydroxy-7-oxa-8-cholesten-6-one] was tested, and the activity at 0.001 µM was no less than 125%.
For `C=CCOC[C@@H](C)[C@H]1CC[C@H]2C3=C(CC[C@]12C)[C@@]1(C)CC[C@H](OCOC)C[C@@H]1C(=O)O3` [Compound 66, (1R,3aR,5aS,7S,9aS,11aR)-1-[(S)-1-Allyloxypropan-2-yl]-7-methoxymethoxy-9a,11a-dimethyl-1,2,3,3a,5a,6,7,8,9,9a,11,11a-dodecahydrobenzo[c]cyclopenta[h]chromen-5(10H)-one], the activity at 0.001 µM was no less than 125%.
`COCO[C@H]1CC[C@]2(C)C3=C(OC(=O)[C@H]2C1)[C@@H]1CC[C@H]([C@H](C)CNCC(C)C)[C@@]1(C)CC3` [Compound 69, (1R,3aR,5aS,7S,9aS,11aR)-1-[(S)-1-Isobutylaminopropan-2-yl]-7-methoxymethoxy-9a,11a-dimethyl-1,2,3,3a,5a,6,7,8,9,9a,11,11a-dodecahydrobenzo[c]cyclopenta[h]chromen-5(10H)-one] gave an activity at 0.001 µM of no less than 125%.
`COCO[C@H]1CC[C@]2(C)C3=C(OC(=O)[C@H]2C1)[C@@H]1CC[C@H]([C@H](C)CN2CCOCC2)[C@@]1(C)CC3` [Compound 72, (1R,3aR,5aS,7S,9aS,11aR)-7-Methoxymethoxy-9a,11a-dimethyl-1[(S)-1-morpholinopropan-2-yl]-1,2,3,3a,5a,6,7,8,9,9a,11,11a-dodecahydrobenzo[c]cyclopenta[h]chromen-5(10H)-one] showed an activity at 0.1 µM of no less than 125%.
With `COCO[C@H]1CC[C@]2(C)C3=C(OC(=O)[C@H]2C1)[C@@H]1CC[C@H]([C@H](C)CCCCCCO)[C@@]1(C)CC3` [Compound 74, (1R,3aR,5aS,7S,9aS,11aR)-1-[(R)-8-Hydroxyoctan-2-yl]-7-methoxymethoxy-9a,11a-dimethyl-1,2,3,3a,5a,6,7,8,9,9a,11,11a-dodecahydrobenzo[c]cyclopenta[h]chromen-5(10H)-one] the activity at 0.01 µM was no less than 125%.
With `CC(CO)CCC[C@H](C)[C@H]1CC[C@H]2C3=C(CC[C@]12C)[C@@]1(C)CC[C@H](O)C[C@@H]1C(=O)O3` (some centres unmarked) [Compound 79, 7-Oxa-cholest-8(9)-en-6-on-3,26-diol] the activity at 0.001 µM was no less than 125%.
For `CC(CCC[C@H](C)[C@H]1CC[C@H]2C3=C(CC[C@]12C)[C@@]1(C)CC[C@H](O)C[C@@H]1C(=O)O3)C(=O)O` (some centres unmarked) [Compound 80, 7-Oxa-3-hydroxy-cholest-8(9)-en-6-on-26-acid], the activity at 0.01 µM was no less than 125%.
With `CC(C)COC[C@@H](C)[C@H]1CC[C@H]2C3=C(CC[C@]12C)[C@@]1(C)CC[C@H](O)C[C@@H]1C(=O)O3` [Compound 81, (1R,3aR,5aS,7S,9aS,11aR)-7-Hydroxy-1-[(S)-1-isobutyloxypropan-2-yl]-9a,11a-dimethyl-1,2,3,3a,5a,6,7,8,9,9a,11,11a-dodecahydrobenzo[c]cyclopenta[h]chromen-5(10H)-one] the activity at 0.001 µM was no less than 125%.
For `CC(C)CNC[C@@H](C)[C@H]1CC[C@H]2C3=C(CC[C@]12C)[C@@]1(C)CC[C@H](O)C[C@@H]1C(=O)O3` [Compound 83, (1R,3aR,5aS,7S,9aS,11aR)-7-Hydroxy-1-[(S)-1-isobutylaminopropan-2-yl]-9a,11a-dimethyl-1,2,3,3a,5a,6,7,8,9,9a,11,11a-dodecahydrobenzo[c]cyclopenta[h]chromen-5(10H)-one], the activity at 0.001 µM was no less than 125%.
Work on `CC(C)CCC[C@@H](C)[C@H]1CC[C@H]2[C@H]3OC(=O)[C@H]4CC(=O)CC[C@]4(C)[C@H]3CC[C@]12C` [Compound 93, (1R,3aR,3bR,5aS,9aR,9bR,11aR)-9a,11a-Dimethyl-1-[(R)-6-methylheptan-2-yl]dodecahydrobenzo[c]cyclopenta[h]chromen-5,7(3bH,8H)-dione] yielded an activity at 0.1 µM of no less than 125%.
With `CC(C)CCC[C@@H](C)[C@H]1CC[C@@H]2[C@]1(C)CC[C@@]13O[C@@]21OC(=O)[C@H]1CC(=O)CC[C@@]13C` [Compound 94, (5S,8S,9S)-7-Oxa-8,9-epoxy-3,6-cholestadione] the activity at 0.01 µM was no less than 125%.
`CC(C)CCC[C@@H](C)[C@H]1CCC2=C3OC(=O)[C@H]4C[C@@H](O)CC[C@]4(C)[C@H]3CC[C@@]21C` [Compound 99, (1R,5aS,7S,9aR,9bR,11aR)-7-Hydroxy-9a,11a-dimethyl-1-[(R)-6-methylheptan-2-yl]-2,3,3,5a,6,7,8,9,9a,9b,10,11,11a-dodecahydrobenzo[c]cyclopenta[h]chromen-5(1H)-one] gave an activity at 0.001 µM of no less than 125%.
